From PMC12528448, “Resistance to CDK7 inhibitors directed by acquired mutation of a conserved residue in cancer cells” (The EMBO Journal, 2025)
Several values for one entry are separate records, joined by “and”; a condition that tells them apart may be missing. Equal values may be shown once.

Experiments:
Type in all cases: cell-based, human
[1] = system: LNCaP-CDK7-D97N cells; experiment: Growth assay (SRB), LNCaP CDK7-D97N knock-in; details: LNCaP CDK7 D99N
Protocol: (§1) To determine the IC50 of drug treatments on growth, cells were seeded in 96-well culture plates. Two days after seeding, the cells were treated with increasing concentrations of drugs and incubated for 4 days. Cell number was determined using the SRB assay (Skehan et al, [1990]), and IC50 values were calculated using non-linear regression curve fitting in GraphPad Prism v10. For all other growth experiments, cells were seeded into 96-well plates, and appropriate drugs were added 2 days after seeding. Cells were then incubated in an IncuCyte Zoom live-cell imager, with cell confluency measured every 6 h. Cell doubling times were determined by non-linear curve fitting (exponential growth equation) in GraphPad Prism v10.
Alt-R^TM S.p. Cas9 nuclease V3, Alt-R CRISPR-Cas9 crRNA, TracrRNA and the donor templates were obtained from Integrated DNA Technologies. […] Cells were treated with 0.7 µM of Alt-R HDR Enhancer V2 to improve HRD efficiency. Sequences of the CRISPRs in the crRNA and the donor templates are shown in the Reagents and tools table. Donor templates were designed to include non-coding substitutions to aid genome DNA PCR for identifying knock-in events and to facilitate cloning; these substitutions are noted in the Reagents and tools table.

[2] = system: 22Rv1 cells; experiment: IncuCyte confluency growth, 22Rv1; details: 1.25µM Samuraciclib
Protocol: as §1

[3] = system: 22Rv1-SamR cells; experiment: IncuCyte confluency growth, 22Rv1-SamR; details: 22Rv1-SamR; for % Confluency: 1.25µM Samuraciclib
Protocol: as §1

[4] = system: 22Rv1 homozygous CDK7-D97N CL3 cells; experiment: IncuCyte confluency growth, 22Rv1 homozygous CDK7-D97N CL3; details: for % Confluency: 1.25µM Samuraciclib
Protocol: as §1

CC(C)c1cnn2c(NCc3ccccc3)cc(NC[C@H]3CCNC[C@@H]3O)nc12 [Samuraciclib]
% Growth ([1]; Log10 Conc. (nM) 0.09): 94.94% and 114.20%
% Growth ([1]; Log10 Conc. (nM) 0.69): 96.54% and 100.62%
% Growth ([1]; Log10 Conc. (nM) 1.29): 87.80% and 88.90%
% Growth ([1]; Log10 Conc. (nM) 1.89): 88.49% and 86.66%
% Growth ([1]; Log10 Conc. (nM) 2.49): 79.14% and 95.81%
% Growth ([1]; Log10 Conc. (nM) 3.10): 43.80% and 31.52%
% Growth ([1]; Log10 Conc. (nM) 3.70): -6.17% and -13.23%
% Growth ([1]; Log10 Conc. (nM) 4.30): -9.58% and -16.90%
% Growth ([1]; Log10 Conc. (nM) -0.52): 101.23% and 96.47%
% Confluency ([2]; 22Rv1, 0 hours): 11.09% and 19.39% and 18.69%
% Confluency ([2]; 22Rv1, 6 hours): 11.39% and 20.88% and 20.07%
% Confluency ([2]; 22Rv1, 12 hours): 11.53% and 22.21% and 21.45%
% Confluency ([2]; 22Rv1, 18 hours): 12.38% and 23.96% and 23.27%
% Confluency ([2]; 22Rv1, 24 hours): 12.59% and 24.76% and 24.14%
% Confluency ([2]; 22Rv1, 72 hours): 18.17% and 36.04% and 35.50%
% Confluency ([2]; 22Rv1, 78 hours): 18.89% and 36.95% and 36.29%
% Confluency ([2]; 22Rv1, 84 hours): 19.31% and 37.65% and 37.05%
% Confluency ([2]; 22Rv1, 90 hours): 19.76% and 38.15% and 37.44%
% Confluency ([2]; 22Rv1, 96 hours): 20.21% and 38.65% and 37.90%
% Confluency ([2]; 22Rv1, 114 hours): 21.28% and 39.48% and 38.59%
% Confluency ([2]; 22Rv1, 120 hours): 21.53% and 39.86% and 38.66%
% Confluency ([2]; 22Rv1, 126 hours): 21.77% and 39.89% and 38.66%
% Confluency ([2]; 22Rv1, 132 hours): 21.94% and 40.00% and 38.90%
% Confluency ([2]; 22Rv1, 138 hours): 22.18% and 40.24% and 38.99%
% Confluency ([2]; 22Rv1, 144 hours): 22.26% and 40.34% and 39.26%
% Confluency ([3]; 0 hours): 9.95% and 14.33% and 14.57%
% Confluency ([3]; 6 hours): 10.40% and 16.13% and 16.29%
% Confluency ([3]; 12 hours): 11.65% and 17.66% and 17.87%
% Confluency ([3]; 18 hours): 12.68% and 19.79% and 20.05%
% Confluency ([3]; 24 hours): 14.19% and 22.35% and 22.55%
% Confluency ([3]; 30 hours): 15.61% and 24.60% and 24.68%
% Confluency ([3]; 36 hours): 16.94% and 26.20% and 26.26%
% Confluency ([3]; 42 hours): 17.81% and 27.46% and 27.71%
% Confluency ([3]; 48 hours): 18.38% and 28.92% and 29.43%
% Confluency ([3]; 54 hours): 19.67% and 30.91% and 31.32%
% Confluency ([3]; 60 hours): 20.82% and 32.87% and 33.32%
% Confluency ([3]; 66 hours): 22.29% and 34.64% and 35.33%
% Confluency ([3]; 72 hours): 23.74% and 36.43% and 37.12%
% Confluency ([3]; 78 hours): 25.50% and 38.39% and 39.15%
% Confluency ([3]; 84 hours): 27.27% and 40.40% and 41.13%
% Confluency ([3]; 90 hours): 29.10% and 42.68% and 43.52%
% Confluency ([3]; 96 hours): 31.07% and 45.25% and 45.93%
% Confluency ([3]; 114 hours): 38.05% and 53.22% and 54.00%
% Confluency ([3]; 120 hours): 40.50% and 56.05% and 56.55%
% Confluency ([3]; 126 hours): 43.34% and 58.82% and 59.09%
% Confluency ([3]; 132 hours): 46.08% and 61.31% and 61.57%
% Confluency ([3]; 138 hours): 48.67% and 63.52% and 63.85%
% Confluency ([3]; 144 hours): 51.40% and 65.10% and 65.55%
Growth inhibition over time ([3]; IncuCyte confluency, samuraciclib at 1.35 µM): considerably less growth inhibited
% Confluency ([4]; CDK7D97N CL3, 0 hours): 11.15% and 16.69% and 15.87%
% Confluency ([4]; CDK7D97N CL3, 6 hours): 12.67% and 19.64% and 18.89%
% Confluency ([4]; CDK7D97N CL3, 12 hours): 14.00% and 21.38% and 20.49%
% Confluency ([4]; CDK7D97N CL3, 18 hours): 14.90% and 23.74% and 22.71%
% Confluency ([4]; CDK7D97N CL3, 24 hours): 16.23% and 26.69% and 25.53%
% Confluency ([4]; CDK7D97N CL3, 30 hours): 17.78% and 29.17% and 27.88%
% Confluency ([4]; CDK7D97N CL3, 36 hours): 18.86% and 30.89% and 29.55%
% Confluency ([4]; CDK7D97N CL3, 42 hours): 19.43% and 32.04% and 30.87%
% Confluency ([4]; CDK7D97N CL3, 48 hours): 20.15% and 33.30% and 32.45%
% Confluency ([4]; CDK7D97N CL3, 54 hours): 21.35% and 35.23% and 34.41%
% Confluency ([4]; CDK7D97N CL3, 60 hours): 22.64% and 37.22% and 36.36%
% Confluency ([4]; CDK7D97N CL3, 66 hours): 23.89% and 39.05% and 38.37%
% Confluency ([4]; CDK7D97N CL3, 72 hours): 25.25% and 40.82% and 40.29%
% Confluency ([4]; CDK7D97N CL3, 78 hours): 26.70% and 42.56% and 42.42%
% Confluency ([4]; CDK7D97N CL3, 84 hours): 28.04% and 44.37% and 44.58%
% Confluency ([4]; CDK7D97N CL3, 90 hours): 29.44% and 46.55%
% Confluency ([4]; CDK7D97N CL3, 96 hours): 30.80% and 48.80% and 48.76%
% Confluency ([4]; CDK7D97N CL3, 114 hours): 35.00% and 54.89% and 54.85%
% Confluency ([4]; CDK7D97N CL3, 120 hours): 36.47% and 56.68%
% Confluency ([4]; CDK7D97N CL3, 126 hours): 38.04% and 58.51% and 58.53%
% Confluency ([4]; CDK7D97N CL3, 132 hours): 39.56% and 60.46% and 60.48%
% Confluency ([4]; CDK7D97N CL3, 138 hours): 41.00% and 62.13% and 62.12%
% Confluency ([4]; CDK7D97N CL3, 144 hours): 42.51% and 63.49% and 63.85%
Growth inhibition over time ([4]; 22Rv1 homozygous CDK7-D97N clone, IncuCyte confluency, samuraciclib at 1.35 µM): considerably less growth inhibited
